Data reported in the NIST ThermoML archive (doi:10.1016/j.jct.2011.05.033).
“And” between values parts separate entries of the source, which are not always exact repeats. Identical values can stand only once.

Legend:
[1] = xn = mol fraction of the nth substance listed; conditions: 298.15 K, 101 kPa, Liquid, Vibrating tube method
[2] = excess molar enthalpy (molar enthalpy of mixing); xn = mol fraction of the nth substance listed; conditions: 298.15 K, 101 kPa, Liquid, Isothermal Titration Calorimeter

CCCCCCCCn1cc[n+](C)c1.O=S(=O)([N-]S(=O)(=O)C(F)(F)F)C(F)(F)F + CO
Conditions | excess molar enthalpy [kcal/mol] | mass density
[1], x1 = 0.0001 | – | 791.05 kg/m3
[1], x1 = 0.0218 | – | 882.47 kg/m3
[1], x1 = 0.0599 | – | 986.86 kg/m3
[1], x1 = 0.0837 | – | 1031.65 kg/m3
[1], x1 = 0.1926 | – | 1153.62 kg/m3
[1], x1 = 0.2708 | – | 1198.9 kg/m3
[1], x1 = 0.3019 | – | 1213.08 kg/m3
[1], x1 = 0.5004 | – | 1267.25 kg/m3
[1], x1 = 0.8201 | – | 1308.01 kg/m3
[1], x1 = 0.8355 | – | 1308.78 kg/m3
[1], x1 = 0.989 | – | 1319.5 kg/m3
[1], x1 = 1 | – | 1320.55 kg/m3 and 1320.38 kg/m3
[2], x2 = 0.0153 | 0.0206 | –
[2], x2 = 0.0302 | 0.0402 | –
[2], x2 = 0.0446 | 0.0586 | –
[2], x2 = 0.0586 | 0.076 | –
[2], x2 = 0.0721 | 0.0923 | –
[2], x2 = 0.0853 | 0.108 | –
[2], x2 = 0.0982 | 0.122 | –
[2], x2 = 0.1106 | 0.136 | –
[2], x2 = 0.1228 | 0.149 | –
[2], x2 = 0.1346 | 0.162 | –
[2], x2 = 0.1461 | 0.173 | –
[2], x2 = 0.1573 | 0.184 | –
[2], x2 = 0.1682 | 0.195 | –
[2], x2 = 0.1788 | 0.205 | –
[2], x2 = 0.1892 | 0.214 | –

CCCCCC[n+]1ccn(C)c1.O=S(=O)([N-]S(=O)(=O)C(F)(F)F)C(F)(F)F + CO
Conditions | excess molar enthalpy [kcal/mol] | mass density
[1], x1 = 0.0001 | – | 792.92 kg/m3
[1], x1 = 0.0002 | – | 792.66 kg/m3
[1], x1 = 0.0003 | – | 792.92 kg/m3
[1], x1 = 0.0711 | – | 1017.33 kg/m3
[1], x1 = 0.0868 | – | 1047.67 kg/m3
[1], x1 = 0.1772 | – | 1163.23 kg/m3
[1], x1 = 0.2176 | – | 1195.97 kg/m3
[1], x1 = 0.2695 | – | 1228.24 kg/m3
[1], x1 = 0.4991 | – | 1308.41 kg/m3
[1], x1 = 0.5488 | – | 1318.7 kg/m3
[1], x1 = 0.5851 | – | 1325.38 kg/m3
[1], x1 = 1 | – | 1371.91 kg/m3 and 1371.79 kg/m3
[2], x2 = 0.0147 | 0.0257 | –
[2], x2 = 0.029 | 0.0503 | –
[2], x2 = 0.0429 | 0.0738 | –
[2], x2 = 0.0564 | 0.0962 | –
[2], x2 = 0.0695 | 0.118 | –
[2], x2 = 0.0823 | 0.138 | –
[2], x2 = 0.0947 | 0.158 | –
[2], x2 = 0.1068 | 0.176 | –
[2], x2 = 0.1186 | 0.194 | –
[2], x2 = 0.13 | 0.211 | –
[2], x2 = 0.1412 | 0.228 | –
[2], x2 = 0.1521 | 0.243 | –
[2], x2 = 0.1627 | 0.258 | –
[2], x2 = 0.1731 | 0.272 | –
[2], x2 = 0.1832 | 0.286 | –

CCCC[n+]1ccn(C)c1.O=S(=O)([N-]S(=O)(=O)C(F)(F)F)C(F)(F)F + CO
Conditions | excess molar enthalpy [kcal/mol] | mass density [kg/m3]
[1], x1 = 0.0844 | – | 1054.48
[1], x1 = 0.1155 | – | 1109.91
[1], x1 = 0.1594 | – | 1168.72
[1], x1 = 0.1722 | – | 1182.69
[1], x1 = 0.264 | – | 1259.96
[1], x1 = 0.6327 | – | 1388.71
[1], x1 = 0.8245 | – | 1418.09
[1], x1 = 1 | – | 1436.29
[2], x2 = 0.0131 | 0.0218 | –
[2], x2 = 0.0258 | 0.0423 | –
[2], x2 = 0.0383 | 0.0617 | –
[2], x2 = 0.0504 | 0.08 | –
[2], x2 = 0.0622 | 0.0973 | –
[2], x2 = 0.0737 | 0.114 | –
[2], x2 = 0.0849 | 0.129 | –
[2], x2 = 0.0959 | 0.144 | –
[2], x2 = 0.1066 | 0.157 | –
[2], x2 = 0.1171 | 0.171 | –
[2], x2 = 0.1273 | 0.183 | –
[2], x2 = 0.1373 | 0.195 | –
[2], x2 = 0.147 | 0.206 | –
[2], x2 = 0.1566 | 0.216 | –
[2], x2 = 0.1659 | 0.226 | –

CCn1cc[n+](C)c1.O=S(=O)([N-]S(=O)(=O)C(F)(F)F)C(F)(F)F + CO
Conditions | excess molar enthalpy [kcal/mol] | mass density
[1], x1 = 0.0001 | – | 792.63 kg/m3
[1], x1 = 0.0732 | – | 1040.6 kg/m3
[1], x1 = 0.1082 | – | 1115.5 kg/m3
[1], x1 = 0.1385 | – | 1165.23 kg/m3
[1], x1 = 0.2145 | – | 1258.12 kg/m3
[1], x1 = 0.2485 | – | 1289.7 kg/m3
[1], x1 = 0.2968 | – | 1325.28 kg/m3
[1], x1 = 0.3388 | – | 1351.25 kg/m3
[1], x1 = 0.6002 | – | 1451 kg/m3
[1], x1 = 0.6355 | – | 1459.63 kg/m3
[1], x1 = 0.7925 | – | 1487.15 kg/m3
[1], x1 = 0.837 | – | 1497.28 kg/m3
[1], x1 = 1 | – | 1518.63 kg/m3 and 1518.58 kg/m3
[2], x2 = 0.0118 | 0.0158 | –
[2], x2 = 0.0233 | 0.0311 | –
[2], x2 = 0.0346 | 0.0454 | –
[2], x2 = 0.0456 | 0.0593 | –
[2], x2 = 0.0563 | 0.0722 | –
[2], x2 = 0.0668 | 0.0848 | –
[2], x2 = 0.0771 | 0.0966 | –
[2], x2 = 0.0872 | 0.108 | –
[2], x2 = 0.097 | 0.119 | –
[2], x2 = 0.1067 | 0.129 | –
[2], x2 = 0.1161 | 0.139 | –
[2], x2 = 0.1253 | 0.148 | –
[2], x2 = 0.1343 | 0.157 | –
[2], x2 = 0.1432 | 0.165 | –
[2], x2 = 0.1519 | 0.173 | –

CO [methanol] + CCCCCCCCCCn1cc[n+](C)c1.O=S(=O)([N-]S(=O)(=O)C(F)(F)F)C(F)(F)F
Conditions | mass density [kg/m3]
[1], x2 = 0 | 793.17

CO [methanol] + CCCCCCCCn1cc[n+](C)c1.O=S(=O)([N-]S(=O)(=O)C(F)(F)F)C(F)(F)F
Conditions | mass density [kg/m3]
[1], x2 = 0 | 792.64

CO [methanol] + CCCCCC[n+]1ccn(C)c1.O=S(=O)([N-]S(=O)(=O)C(F)(F)F)C(F)(F)F
Conditions | mass density [kg/m3]
[1], x2 = 0 | 792.66

CO [methanol] + CCCC[n+]1ccn(C)c1.O=S(=O)([N-]S(=O)(=O)C(F)(F)F)C(F)(F)F
Conditions | mass density [kg/m3]
[1], x2 = 0 | 792.92

CO [methanol] + CCn1cc[n+](C)c1.O=S(=O)([N-]S(=O)(=O)C(F)(F)F)C(F)(F)F
Conditions | mass density [kg/m3]
[1], x2 = 0 | 794.62
